Source: PubChem BioAssay (NCI)
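Step 1: Grow cells in 96-well plates. Step 2: Expose to compound for 48 hours at 5 concentrations. Step 3: Interpolate endpoints linearly; if unreached, use highest concentration. At the GI50, growth is halved. At the TGI there is no net growth.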

Legend:
Experiment in all cases: NCI anticancer screen, dose series, 48 h
[1] = tested on: 786-0 renal
[2] = tested on: A498 renal
[3] = tested on: A549 NSCLC
[4] = tested on: ACHN renal
[5] = tested on: BT-549 breast
[6] = tested on: CAKI-1 renal
[7] = tested on: CCRF-CEM leukemia
[8] = tested on: COLO 205 colon
[9] = tested on: DU-145 prostate
[10] = tested on: EKVX NSCLC
[11] = tested on: HCC-2998 colon
[12] = tested on: HCT-116 colon
[13] = tested on: HCT-15 colon
[14] = tested on: HL-60(TB) leukemia
[15] = tested on: HOP-62 NSCLC
[16] = tested on: HS 578T breast
[17] = tested on: HT29 colon
[18] = tested on: IGROV1 ovarian
[19] = tested on: K-562 leukemia
[20] = tested on: KM12 colon
[21] = tested on: M14 melanoma
[22] = tested on: MALME-3M melanoma
[23] = tested on: MCF7 breast
[24] = tested on: MDA-MB-435
[25] = tested on: MOLT-4 leukemia
[26] = tested on: NCI-H23 lung
[27] = tested on: NCI-H460 lung
[28] = tested on: NCI-H522 lung
[29] = tested on: NCI/ADR-RES ovarian
[30] = tested on: OVCAR-3 ovarian
[31] = tested on: OVCAR-4 ovarian
[32] = tested on: OVCAR-5 ovarian
[33] = tested on: OVCAR-8 ovarian
[34] = tested on: PC-3 prostate
[35] = tested on: RPMI-8226 leukemia
[36] = tested on: RXF 393 renal
[37] = tested on: SF-268 CNS
[38] = tested on: SF-295 CNS
[39] = tested on: SF-539 CNS
[40] = tested on: SK-MEL-28 melanoma
[41] = tested on: SK-OV-3 ovarian
[42] = tested on: SN12C renal
[43] = tested on: SNB-19 CNS
[44] = tested on: SW-620 colon
[45] = tested on: T-47D breast
[46] = tested on: TK-10 renal
[47] = tested on: UACC-62 melanoma
[48] = tested on: UO-31 renal

COc1ccc(-c2ccc(/C=N/n3cn[nH]c3=S)o2)c([N+](=O)[O-])c1
GI50 [1]: 66.2 µM
TGI [1]: > 100 µM
GI50 [2]: 1.35 µM
TGI [2]: 10.3 µM
GI50 [3]: 36.2 µM
TGI [3]: > 100 µM
GI50 [4]: 50.7 µM
TGI [4]: > 100 µM
GI50 [5]: 30.1 µM
TGI [5]: > 100 µM
GI50 [6]: 32.6 µM
TGI [6]: > 100 µM
GI50 [7]: 26.1 µM
TGI [7]: 75.3 µM
GI50 [8]: 45.6 µM
TGI [8]: > 100 µM
GI50 [9]: 80.5 µM
TGI [9]: > 100 µM
GI50 [10]: 75 µM
TGI [10]: > 100 µM
GI50 [11]: 38.9 µM
TGI [11]: > 100 µM
GI50 [12]: 29.6 µM
TGI [12]: 94.4 µM
GI50 [13]: 26 µM
TGI [13]: > 100 µM
GI50 [14]: 14.5 µM
TGI [14]: 33.7 µM
GI50 [15]: 62.2 µM
TGI [15]: > 100 µM
GI50 [16]: 30.6 µM
TGI [16]: 85.3 µM
GI50 [17]: 32.6 µM
TGI [17]: > 100 µM
GI50 [18]: 39.6 µM
TGI [18]: > 100 µM
GI50 [19]: 16.9 µM
TGI [19]: 36.9 µM
GI50 [20]: 27.2 µM
TGI [20]: > 100 µM
GI50 [21]: 49 µM
TGI [21]: > 100 µM
GI50 [22]: 23.8 µM
TGI [22]: > 100 µM
GI50 [23]: 25.4 µM
TGI [23]: 89.1 µM
GI50 [24]: 19.8 µM
TGI [24]: 44.8 µM
GI50 [25]: 16.3 µM
TGI [25]: 50.8 µM
GI50 [26]: 39.3 µM
TGI [26]: > 100 µM
GI50 [27]: 36.1 µM
TGI [27]: > 100 µM
GI50 [28]: 40.2 µM
TGI [28]: > 100 µM
GI50 [29]: 30.5 µM
TGI [29]: 94 µM
GI50 [30]: 33.9 µM
TGI [30]: > 100 µM
GI50 [31]: 82.9 µM
TGI [31]: > 100 µM
GI50 [32]: 97.1 µM
TGI [32]: > 100 µM
GI50 [33]: 38.2 µM
TGI [33]: > 100 µM
GI50 [34]: 35.7 µM
TGI [34]: > 100 µM
GI50 [35]: 22.5 µM
TGI [35]: 70.1 µM
GI50 [36]: 32.2 µM
TGI [36]: > 100 µM
GI50 [37]: 29.1 µM
TGI [37]: > 100 µM
GI50 [38]: 36 µM
TGI [38]: > 100 µM
GI50 [39]: 40.9 µM
TGI [39]: > 100 µM
GI50 [40]: 48.6 µM
TGI [40]: > 100 µM
GI50 [41]: 45.5 µM
TGI [41]: > 100 µM
GI50 [42]: 59.1 µM
TGI [42]: > 100 µM
GI50 [43]: 63.2 µM
TGI [43]: > 100 µM
GI50 [44]: 29.8 µM
TGI [44]: > 100 µM
GI50 [45]: 51.8 µM
TGI [45]: > 100 µM
GI50 [46]: 18 µM
TGI [46]: 86.6 µM
GI50 [47]: 41.1 µM
TGI [47]: > 100 µM
GI50 [48]: 54.4 µM
TGI [48]: > 100 µM
